Measured values as given in patent US9994890B1, “Methods of natural product drug discovery” (priority 2012, dated 2018).
Where two headings read alike, the source gives them in different places. Starred links: 1 amine or outer side, 2 acyl side, 3 side chain; linkers in the order of their positions; H or OH if unused. Positions of bridges follow the written chain, without caps; N, C: chain ends. Non-standard residues stand in square brackets, D forms with d. Residues, ends and D or L forms follow the SMILES beside them. Chains are numbered I, II in the order given. Actinocin(9to1) = Cc1c2oc3c(C)ccc(C(=O)[*:1])c3nc-2c(C(=O)[*:2])c(N)c1=O; NMeV = CN[C@H](C(=O)O)C(C)C; Sar = CNCC(=O)O

Assays:
[1] = system: ten strains of Staphylococcus aureus, each resistant to a different, known, antibiotic; assay: Small scale experiment: panel of ten resistant strains in a microplate; type: cell-based; conditions: Example 1, FIG. 1
Experimental: In a small scale experiment, ten strains of Staphylococcus aureus, each resistant to a different, known, antibiotic, were generated. These strains were added to the wells of a microplate. […] Thus, it was determined that each strain of Staphylococcus aureus was resistant to at least one of ten known antibiotics (FIG. 1).
In this way, it was shown that linezolid was not part of the initial set of ten antibiotics. In other words, the panel of ten Staphylococcus aureus strains used allowed dereplication of the ten antibiotics with no need for analytical chemistry. This experiment establishes that the panel of ten strains can be scaled up to several thousand strains, which will be collectively resistant to as many known antibiotics, and screen sources of unknown compounds (e.g., microbial or eukaryotic cell spent media, cell and tissue extracts, combinatorial libraries, etc.). Using such a large scale screen allows identification of a source containing an antimicrobial activity that is unique from the thousands of known antibiotics, and thus a likely source of a novel antibiotic. Similarly, and using either microbial spent media or individual compounds from chemical libraries, a search can be performed for novel compounds with anticancer, anti-inflammatory, or other desired properties.

S. aureus strain RN4220 = assay: MIC determination, wildtype strain RN4220 (96-well dilution series, Mueller-Hinton broth); type: cell-based, Staphylococcus aureus; conditions: for MIC: Staphylococcus aureus, RN4220
Experimental: (§1) The majority of mutants were obtained by selection of the S. aureus strain RN4220 on agar plates in presence of an antibiotic. Briefly, the minimal inhibitory concentration (“MIC”) of the wildtype strain RN4220 was determined. For this purpose a liquid culture with an OD of 0.5 was added as a dilution of 1:100 in Mueller-Hinton broth to each well of a 96-well plate containing a dilution series of a certain antibiotic. The 96-well plate was incubated at 37° C. overnight. The lowest antibiotic concentration where no growth of bacteria could be determined is defined as the MIC value of this strain.

[2] = system: mutants obtained by selection of the S. aureus strain RN4220; assay: MIC determination, mutants obtained by selection on antibiotic agar; type: cell-based, Staphylococcus aureus; conditions: for MIC of the mutant: Table 1, mutant resistant to the antibiotic of the same line; for MIC: Staphylococcus aureus, read-out: MIC of the mutant
Experimental: as §1
To select first-step mutants agar plates containing an antibiotic concentration of 0.5×-, 1×-, 2×-, 3×- and 5×MIC were prepared and approximately 1×10^8 cells were plated and incubated overnight. Colonies grown on the plate with the highest antibiotic concentration were subcultured in liquid MH-media containing the same concentration of antibiotic to avoid loss of resistance. This culture was used to prepare a 25% glycerol stock that is stored at −80° C. To test the stability of resistance each strain was subcultured again either in presence of an antibiotic or in media without any antibiotics. After that both cultures were plated on agar plates. In case of a stable mutation that leads to the resistance no difference in growth behavior of the liquid culture or the cultures plated on agar plates should be noticed. The MIC of the mutants was determined.
After the successful selection of eight first-step mutants the experiment was repeated in a same manner as described above to obtain mutants having a resistance to much higher concentration of antibiotic. With the exception of the actinomycin D mutant, additional mutants were obtained. Again the MIC-values for the new mutants were determined.

[3] = system: strains NRS106, NRS107, NRS128 and NRS129; assay: MIC determination, mutants purchased from NARSA; type: cell-based, Staphylococcus aureus; conditions: for MIC: Staphylococcus aureus, read-out: MIC of the mutant
Experimental: Four strains from NARSA (Network on Antimicrobial Resistance in Staphylococcus aureus) could be purchased. The strains NRS106, NRS107, NRS128 and NRS129 show resistances against the antibiotics gentamicin, mupirocin, erythromycin and chloramphenicol.
as §1

[4] = Table 1, 37° C. overnight, read-out: MIC of wildtype RN4220
[5] = Table 2, read-out: MIC of wilcitype RN4220

CC(=O)NC[C@H]1CN(c2ccc(N3CCOCC3)c(F)c2)C(=O)O1 [linezolid]
microbial growth in the wells containing the ten resistant strains [1]: suppressed the growth in all the wells

Cc1c2oc3c(C)ccc(C(=O)N[C@@H]4C(=O)N[C@H](C(C)C)C(=O)N5CCC[C@H]5C(=O)N(C)CC(=O)N(C)[C@@H](C(C)C)C(=O)O[C@@H]4C)c3nc-2c(C(=O)N[C@@H]2C(=O)N[C@H](C(C)C)C(=O)N3CCC[C@H]3C(=O)N(C)CC(=O)N(C)[C@@H](C(C)C)C(=O)O[C@@H]2C)c(N)c1=O [Actinomycin D] (I: T[dV]P[Sar][NMeV] / II: T[dV]P[Sar][NMeV]; ester I:1-I:C, II:1-II:C; linker I:N-II:N via Actinocin(9to1))
MIC of wildtype RN4220 (S. aureus strain RN4220; Table 1, 37° C. overnight): 1.56 µg/mL
MIC of the mutant [2]: 12.48 µg/mL

CO[C@@H]1[C@@H](OC(N)=O)[C@@H](O)[C@H](Oc2ccc3c(O)c(NC(=O)c4ccc(O)c(CC=C(C)C)c4)c(=O)oc3c2C)OC1(C)C [Novobiocin]
MIC (S. aureus strain RN4220; [4]): 0.05 µg/mL
MIC [2]: 12.5 µg/mL

CC1COc2c(N3CCN(C)CC3)c(F)cc3c(=O)c(C(=O)O)cn1c23 (centres unmarked) [Ofloxacin]
MIC (S. aureus strain RN4220; [4]): 0.4 µg/mL
MIC [2]: 1.5 µg/mL

C/C(=C\C(=O)OCCCCCCCCC(=O)O)C[C@@H]1OC[C@H](C[C@@H]2O[C@H]2[C@@H](C)[C@H](C)O)[C@@H](O)[C@H]1O [Mupirocin]
MIC [3]: 25 µg/mL
MIC (S. aureus strain RN4220; [5]): 500 µg/mL

CO[C@H]1/C=C/O[C@@]2(C)Oc3c(C)c(O)c4c(O)c(c(/C=N/N5CCN(C)CC5)c(O)c4c3C2=O)NC(=O)/C(C)=C\C=C\[C@H](C)[C@H](O)[C@@H](C)[C@@H](O)[C@@H](C)[C@H](OC(C)=O)[C@@H]1C [Rifampicin]
MIC (S. aureus strain RN4220; [4]): 0.008 µg/mL
MIC [2]: 250 µg/mL

CN[C@H](CC(C)C)C(=O)N[C@H]1C(=O)N[C@@H](CC(N)=O)C(=O)N[C@H]2C(=O)N[C@H]3C(=O)N[C@H](C(=O)N[C@H](C(=O)O)c4cc(O)cc(O)c4-c4cc3ccc4O)[C@H](O)c3ccc(c(Cl)c3)Oc3cc2cc(c3O[C@@H]2O[C@H](CO)[C@@H](O)[C@H](O)[C@H]2O[C@H]2C[C@](C)(N)[C@H](O)[C@H](C)O2)Oc2ccc(cc2Cl)[C@H]1O [Vancomycin]
MIC (S. aureus strain RN4220; [4]): 1.56 µg/mL
MIC [2]: 2000 µg/mL

CN(C)[C@@H]1C(=O)C(C(N)=O)=C(O)[C@@]2(O)C(=O)C3=C(O)c4c(O)cccc4[C@@](C)(O)[C@H]3C[C@@H]12 [Tetracyclin]
MIC of wildtype RN4220 (S. aureus strain RN4220; Table 1, 37° C. overnight): 0.1 µg/mL
MIC of the mutant [2]: 3.9 µg/mL

[H]/N=C(/N)N[C@H]1[C@H](O)[C@@H](O)[C@H](O[C@@H]2O[C@@H](C)[C@](O)(C=O)[C@H]2O[C@@H]2O[C@@H](CO)[C@H](O)[C@@H](O)[C@@H]2NC)[C@@H](N/C(N)=N\[H])[C@@H]1O [Streptomycin]
MIC (S. aureus strain RN4220; [4]): 25 µg/mL

Gentamicin
MIC of the mutant ([3]; Table 2, NARSA strain named in the same line): 0.8 µg/mL
MIC of wilcitype RN4220 (S. aureus strain RN4220; Table 2): 250 µg/mL

O=C(N[C@H](CO)[C@H](O)c1ccc([N+](=O)[O-])cc1)C(Cl)Cl [Chloramphenicol]
MIC [3]: 12.5 µg/mL
MIC (S. aureus strain RN4220; [5]): 62.5 µg/mL

CC[C@H]1OC(=O)[C@H](C)[C@@H](O[C@H]2C[C@@](C)(OC)[C@@H](O)[C@H](C)O2)[C@H](C)[C@@H](O[C@@H]2O[C@H](C)C[C@H](N(C)C)[C@H]2O)[C@](C)(O)C[C@@H](C)C(=O)[C@H](C)[C@@H](O)[C@]1(C)O [Erythromycin]
MIC [3]: 0.8 µg/mL

CC1(C)S[C@@H]2[C@H](NC(=O)[C@H](N)c3ccccc3)C(=O)N2[C@H]1C(=O)O [Ampicillin]
MIC (S. aureus strain RN4220; [4]): 0.2 µg/mL
MIC [2]: 300 µg/mL
